Results from paper PMC9763333, “In vitro characterization of immune modulating drug-eluting immunobeads towards transarterial embolization in cancer” (Scientific Reports, 2022).
Where “and” joins values, the source holds several entries; their conditions need not be identical. Identical values can stand only once. Entries after “also recorded” stand apart in the source; their conditions may differ. Like-named read-outs stand apart in the source and are kept apart here. Values belong to the molecule of their own block, whether it stands above or below them.

Key:
Type in all cases: physicochemical
[1] = Drug loading into DC Bead LUMI
Description: DC Bead LUMI was analyzed for its elemental composition by MEDAC Inc. […] Drug loading was performed in triplicate as previously reported[45] with slight modifications. […] Washing of beads is often a critical step in drug release studies as any drug left unbound to the beads affects the release profile and exaggerates the early burst release. […] However, washing was discontinued for TLR drugs as drug was continually observed even after multiple washes. […] The amount of drug loaded at the specified time points was calculated by subtracting the amount of drug remaining from the initial amount of drug in the loading solution and the cumulative amount of drug withdrawn for sampling. The maximum drug loaded in the beads was calculated once no further change in the concentration in the loading solution could be measured and before washing the beads. The relative percent drug loaded was defined as the maximum amount of drug loaded as a percent of the amount of SO3^- ions available in the beads on a molar basis using the following formula and the results are presented as the mean ± SD.

[2] = Washing of drug-loaded beads with deionized water and microscopic appearance
Description: Drug loading was performed in triplicate as previously reported[45] with slight modifications. […] Washing of beads is often a critical step in drug release studies as any drug left unbound to the beads affects the release profile and exaggerates the early burst release. […] However, washing was discontinued for TLR drugs as drug was continually observed even after multiple washes. […] The amount of drug loaded at the specified time points was calculated by subtracting the amount of drug remaining from the initial amount of drug in the loading solution and the cumulative amount of drug withdrawn for sampling. The maximum drug loaded in the beads was calculated once no further change in the concentration in the loading solution could be measured and before washing the beads. The relative percent drug loaded was defined as the maximum amount of drug loaded as a percent of the amount of SO3^- ions available in the beads on a molar basis using the following formula and the results are presented as the mean ± SD.

[3] = Drug release from DC Bead LUMI in saline; settings: for release in saline from DC Bead LUMI after multiple washes in deionized water: single replicates
Description: […] Briefly, drug-loaded DC Bead LUMI or LC Bead (62.5 µL) were placed in vessels with 50 mL of saline ([…], pH 7.4) and were agitated with upright rocking motion at a set maximum rocking speed of 10 (70 rpm) for 144 h at 37 °C using Ward's® Rotating Mixer. At scheduled time intervals identical to the loading time points, 1 mL of release media was withdrawn and used for drug quantification. To maintain 50 mL total elution volume, 1 mL of fresh saline pre heated to 37 °C was replaced at each timepoint. […] 2.4. The cumulative amount of drug released at each time point was calculated by multiplying the concentration of each sample aliquot by the total volume (50 mL) of release media and adding the sum of the amount of drug removed for sampling at prior time points. […] The 50 mL volume was chosen to ensure infinite sink conditions where the maximum possible concentration of eluted drug would be at least 10 times more dilute than the maximum solubility. This ensures the rate of release is not affected by solution concentration but is only a function of interactions of the bead, drug, and saline.

[4] = pKa measurement by triple titration in methanol–water co-solvent with Yasuda-Shedlovsky extrapolation; settings: for pKa: methanol–water co-solvent, aqueous value by Yasuda-Shedlovsky extrapolation; for psKa1 / psKa2: methanol–water
Description: pKa measurements were performed by Pion Inc, UK Ltd using known methods as previously reported[47]–[50] or calculated by using software MoKa (Molecular Discovery, Borehamwood, Hertfordshire, UK, https://www.moldiscovery.com/software/moka/#references) or directly obtained from the literature. For GARD and DSR 6434, a triple titration was carried out under methanol–water co-solvent conditions from pH 2.0–12.0 at concentrations of 2.3–1.3 mM (the methanol mixing ratio varied from 49.0 to 28.9% w/w) and 1.5–0.9 mM (the methanol mixing ratio varied from 49.6 to 29.1% w/w), respectively.

[5] = Drug solubilization by salt formation in acid; settings: HPLC, two peaks observed
Description: The base form of each drug was suspended in deionized water and titrated with 0.1 N hydrochloric acid (Fisher Scientific, Hampton, NH) while stirring until all the base was solubilized and the volume adjusted to a final concentration of 2.5 mg/mL. The resulting solution was frozen, then lyophilized to yield solid drug-hydrochloride salt or used in its solubilized form for loading into DC Bead LUMI. […] Doxorubicin.HCl was readily solubilized and used without modification. […] A ZORBAX Eclipse Plus C8 reversed-phase column (Agilent) and UV detector at wavelength of 230 nm were used for GS-9620 analysis. The decomposition product of GS-9620 was analyzed with reversed phase high-performance liquid chromatography (Rp-HPLC) and LC/MS.

- Relative percent drug loaded in DC Bead LUMI over time ([1]; 5 min, single replicates): 55.2766% and 60.9514% and 46.1831%
- Relative percent drug loaded in DC Bead LUMI over time ([1]; 15 min, single replicates): 43.0802% and 66.0616% and 55.143%
- Relative percent drug loaded in DC Bead LUMI over time ([1]; 30 min, single replicates): 48.003% and 64.9413% and 48.1153%
- Relative percent drug loaded in DC Bead LUMI over time ([1]; 45 min, single replicates): 42.5221% and 54.7578% and 59.077%
- Relative percent drug loaded in DC Bead LUMI over time ([1]; 60 min, single replicates): 49.9393% and 67.8727% and 53.1769%
- Relative percent drug loaded in DC Bead LUMI over time ([1]; 120 min, single replicates): 71.3739% and 70.6276% and 67.3547%
- Relative percent drug loaded in DC Bead LUMI over time ([1]; 180 min, single replicates): 60.3259% and 72.9711% and 72.9791%
- Relative percent drug loaded in DC Bead LUMI over time ([1]; 240 min, single replicates): 61.2934% and 72.504% and 74.4803%
- Relative percent drug loaded in DC Bead LUMI over time ([1]; 300 min, single replicates): 61.9583% and 65.0576% and 73.7822%
- Relative percent drug loaded in DC Bead LUMI over time ([1]; 360 min, single replicates): 62.1239% and 73.4051% and 73.7491%
- Relative percent drug loaded in DC Bead LUMI over time ([1]; 420 min, single replicates): 57.6019% and 70.5665% and 69.0951%
- Relative percent drug loaded in DC Bead LUMI over time ([1]; 480 min, single replicates): 60.233% and 70.8296% and 71.2658%
- Relative percent drug loaded in DC Bead LUMI over time ([1]; 1440 min, single replicates): 61.7405% and 70.3053% and 72.3473%
- Relative percent drug loaded in DC Bead LUMI over time ([1]; 2880 min, single replicates): 58.2466% and 69.7502% and 67.5798%
- Relative percent drug loaded in DC Bead LUMI over time ([1]; 4320 min, single replicates): 62.5088% and 74.175% and 74.3147%
- Relative percent drug loaded in DC Bead LUMI over time ([1]; 8640 min, single replicates): 62.7357% and 73.7536% and 73.1477%
- loading behaviour ([1]; DC Bead LUMI): Fast loading
- Relative percent drug loaded (maximum, percent of SO3− available on a molar basis) ([1]; DC Bead LUMI, mean (n = 3)): 73% and 73.34%
- equivalent of drug loaded to sulfonated bead ([1]; DC Bead LUMI, mean ± SD): 0.21 ± 0.00 mM drug/ml beads
- Maximum drug loaded ([1]; DC Bead LUMI, mean ± SD, n = 3, base form except Dox (salt form)): 65.97 ± 1.54 mg drug/ml beads
- Maximum drug loaded (Triplicate), % ([1]; DC Bead LUMI, single replicates): 71.3739% and 74.175% and 74.4803%
- Drug: sulfonate ([1]; molar ratio at maximum loading, DC Bead LUMI): 0.733
- Theoretical maximum loading level based on SO3− contents ([1]; per mL DC Bead LUMI, assuming 1:1 drug to sulfonate): 89.95 mg
- removal of drug from beads by repeated washing with deionized water ([2]; DC Bead LUMI): partially removed
- aggregation of drug during washing / elution ([2]; deionized water and saline, microscopy): absence of aggregated
- release behaviour in saline ([3]; DC Bead LUMI): rapid release
- pKa ([4]; read-out: pKa (first, measured)): 7.02
- pKa ([4]; read-out: pKa (second, measured)): 8.02
- psKa1 ([4]; dielectric constant 56.8): 6.81
- psKa2 ([4]; dielectric constant 56.8): 7.83
- psKa1 ([4]; dielectric constant 61.6): 6.89
- psKa2 ([4]; dielectric constant 61.6): 7.88
- psKa1 ([4]; dielectric constant 66): 6.92
- psKa2 ([4]; dielectric constant 66): 7.94
Compound: CCNCc1nc2c(N)nc3ccccc3c2n1CC(C)(C)O [GARD, gardiquimod]
- release in saline from DC Bead LUMI after multiple washes in deionized water ([3]; 5 min): 13.8548 mg/mL of beads and 16.8316 mg/mL of beads and 16.696 mg/mL of beads
- release in saline from DC Bead LUMI after multiple washes in deionized water ([3]; 15 min): 6.978 mg/mL of beads and 10.4756 mg/mL of beads and 7.4826 mg/mL of beads
- release in saline from DC Bead LUMI after multiple washes in deionized water ([3]; 30 min): 11.5876 mg/mL of beads and 14.6655 mg/mL of beads and 10.6769 mg/mL of beads
- release in saline from DC Bead LUMI after multiple washes in deionized water ([3]; 45 min): 12.1501 mg/mL of beads and 14.1614 mg/mL of beads and 16.9158 mg/mL of beads
- release in saline from DC Bead LUMI after multiple washes in deionized water ([3]; 60 min): 12.3872 mg/mL of beads and 11.2006 mg/mL of beads and 10.7852 mg/mL of beads
- release in saline from DC Bead LUMI after multiple washes in deionized water ([3]; 120 min): 6.495 mg/mL of beads and 18.2582 mg/mL of beads and 8.614 mg/mL of beads
- release in saline from DC Bead LUMI after multiple washes in deionized water ([3]; 180 min): 13.4173 mg/mL of beads and 9.599 mg/mL of beads and 8.837 mg/mL of beads
- release in saline from DC Bead LUMI after multiple washes in deionized water ([3]; 240 min): 11.2341 mg/mL of beads and 19.3333 mg/mL of beads and 19.2869 mg/mL of beads
- release in saline from DC Bead LUMI after multiple washes in deionized water ([3]; 300 min): 11.4298 mg/mL of beads and 19.0264 mg/mL of beads and 20.0563 mg/mL of beads
- release in saline from DC Bead LUMI after multiple washes in deionized water ([3]; 360 min): 14.8464 mg/mL of beads and 16.7671 mg/mL of beads and 17.7148 mg/mL of beads
- release in saline from DC Bead LUMI after multiple washes in deionized water ([3]; 420 min): 10.7872 mg/mL of beads and 18.9583 mg/mL of beads and 16.16 mg/mL of beads
- release in saline from DC Bead LUMI after multiple washes in deionized water ([3]; 480 min): 14.0597 mg/mL of beads and 15.9257 mg/mL of beads and 20.8469 mg/mL of beads
- release in saline from DC Bead LUMI after multiple washes in deionized water ([3]; 1440 min): 16.384 mg/mL of beads and 22.102 mg/mL of beads and 14.1626 mg/mL of beads
- release in saline from DC Bead LUMI after multiple washes in deionized water ([3]; 2880 min): 17.882 mg/mL of beads and 19.297 mg/mL of beads and 22.6822 mg/mL of beads
- release in saline from DC Bead LUMI after multiple washes in deionized water ([3]; 4320 min): 17.16 mg/mL of beads and 21.3309 mg/mL of beads and 22.7224 mg/mL of beads
- release in saline from DC Bead LUMI after multiple washes in deionized water ([3]; 8640 min): 16.9125 mg/mL of beads and 21.9345 mg/mL of beads and 17.7447 mg/mL of beads

Compound: CCCCOc1nc(N)c2c(n1)N(Cc1cccc(CN3CCCC3)c1)CC(=O)N2 [GS-9620]
- stability in the solubilizing conditions [5]: partially decomposed; also recorded: not stable
